Several values for one entry are separate records, joined by “and”; a condition that tells them apart may be missing. Identical values can stand only once.
System: Mus musculus
Experiment: Analgesic activity in albino mouse assessed as protection at 10 mg/kg, ip measured after 60 mins by hot plate test (reference value: 0 %)
Type: functional
Conditions: 1 h

| SMILES | Activity |
| --- | --- |
| COc1cc(/C=C/C(=O)/C=C(O)/C=C/c2ccc(OC(=O)CNC(=O)OCC3c4ccccc4-c4ccccc43)c(OC)c2)ccc1OC(=O)CNC(=O)OCC1c2ccccc2-c2ccccc21 | 19.3% |

System: Staphylococcus aureus
Experiment: Antibacterial activity against Staphylococcus aureus ATCC 25923 incubated for 18 hrs by agar dilution method
Type: functional
Conditions: not given

| MIC | SMILES |
| --- | --- |
| 1 µg/mL and 1.08 µM | COc1cc(/C=C/C(=O)/C=C(O)/C=C/c2ccc(OC(=O)CNC(=O)OCC3c4ccccc4-c4ccccc43)c(OC)c2)ccc1OC(=O)CNC(=O)OCC1c2ccccc2-c2ccccc21 |

System: Rattus norvegicus
Experiment: Anti-inflammatory activity in Wistar rat assessed as inhibition of carrageenan-induced paw edema at 10 mg/kg, ip pretreated for 1 hr followed by carrageenan challenge and measured after 1 hr relative to control (reference value: 0.00 +/-0.02 %)
Type: functional
Conditions: time 2 hrs

| SMILES | inhibition in vivo at 10 mg/kg |
| --- | --- |
| COc1cc(/C=C/C(=O)/C=C(O)/C=C/c2ccc(OC(=O)CNC(=O)OCC3c4ccccc4-c4ccccc43)c(OC)c2)ccc1OC(=O)CNC(=O)OCC1c2ccccc2-c2ccccc21 | 40% |

System: Mus musculus
Experiment: Analgesic activity in albino mouse assessed reduction in acetic acid-induced abdominal writhing by measuring writing reflex at 10 mg/kg, ip pretreated for 1 hr followed by acetic acid challenge and measured starting 5 mins post acetic acid challenge for 10 mins (reference value: 42.4 +/- 1.02)
Type: functional
Conditions: time 75 min, 1.25 h

| SMILES | Activity |
| --- | --- |
| COc1cc(/C=C/C(=O)/C=C(O)/C=C/c2ccc(OC(=O)CNC(=O)OCC3c4ccccc4-c4ccccc43)c(OC)c2)ccc1OC(=O)CNC(=O)OCC1c2ccccc2-c2ccccc21 | 18 |

System: Mus musculus
Experiment: Analgesic activity in albino mouse assessed protection against acetic acid-induced abdominal writhing at 10 mg/kg, ip pretreated for 1 hr followed by acetic acid challenge and measured starting 5 mins post acetic acid challenge for 10 mins relative to indomethacin
Type: functional
Conditions: time 75 min, 1.25 h

| SMILES | Activity |
| --- | --- |
| COc1cc(/C=C/C(=O)/C=C(O)/C=C/c2ccc(OC(=O)CNC(=O)OCC3c4ccccc4-c4ccccc43)c(OC)c2)ccc1OC(=O)CNC(=O)OCC1c2ccccc2-c2ccccc21 | 93.3% |

System: not listed separately
Experiment: Ulcerogenic activity in fasted albino mouse assessed as average severity of ulcers in gastric mucosa at 10 mg/kg, po for 3 days (reference value: 0)
Type: toxicity, organism-based
Conditions: in vivo, 72 h, time 3 day

| SMILES | Activity |
| --- | --- |
| COc1cc(/C=C/C(=O)/C=C(O)/C=C/c2ccc(OC(=O)CNC(=O)OCC3c4ccccc4-c4ccccc43)c(OC)c2)ccc1OC(=O)CNC(=O)OCC1c2ccccc2-c2ccccc21 | 0 |

System: Rattus norvegicus
Experiment: Anti-inflammatory activity in Wistar rat assessed as inhibition of carrageenan-induced paw edema at 10 mg/kg, ip pretreated for 1 hr followed by carrageenan challenge and measured after 4 hr relative to control (reference value: 0.00 +/-0.4 %)
Type: functional
Conditions: time 5 hrs

| SMILES | inhibition in vivo at 10 mg/kg |
| --- | --- |
| COc1cc(/C=C/C(=O)/C=C(O)/C=C/c2ccc(OC(=O)CNC(=O)OCC3c4ccccc4-c4ccccc43)c(OC)c2)ccc1OC(=O)CNC(=O)OCC1c2ccccc2-c2ccccc21 | 79% |

System: Rattus norvegicus
Experiment: Antiinflammatory activity in Wistar rat model of carrageenan-induced paw edema assessed as reduction in thickness of paw edema at 10 mg/kg, ip pretreated for 1 hr followed by carrageenan challenge and measured after 2 hrs (reference value: 2.06 +/-0.09 mm)
Type: functional
Conditions: time 3 hrs

| SMILES | Activity |
| --- | --- |
| COc1cc(/C=C/C(=O)/C=C(O)/C=C/c2ccc(OC(=O)CNC(=O)OCC3c4ccccc4-c4ccccc43)c(OC)c2)ccc1OC(=O)CNC(=O)OCC1c2ccccc2-c2ccccc21 | 0.78 mm |

System: Mus musculus
Experiment: Analgesic activity in albino mouse assessed as protection at 10 mg/kg, ip measured after 30 mins by hot plate test (reference value: 0 %)
Type: functional
Conditions: 0.5 h

| SMILES | Activity |
| --- | --- |
| COc1cc(/C=C/C(=O)/C=C(O)/C=C/c2ccc(OC(=O)CNC(=O)OCC3c4ccccc4-c4ccccc43)c(OC)c2)ccc1OC(=O)CNC(=O)OCC1c2ccccc2-c2ccccc21 | 18.7% |

System: Rattus norvegicus
Experiment: Antiinflammatory activity in Wistar rat model of carrageenan-induced paw edema assessed as reduction in thickness of paw edema at 10 mg/kg, ip pretreated for 1 hr followed by carrageenan challenge and measured after 4 hrs (reference value: 1.40 +/-0.10 mm)
Type: functional
Conditions: time 5 hrs

| SMILES | Activity |
| --- | --- |
| COc1cc(/C=C/C(=O)/C=C(O)/C=C/c2ccc(OC(=O)CNC(=O)OCC3c4ccccc4-c4ccccc43)c(OC)c2)ccc1OC(=O)CNC(=O)OCC1c2ccccc2-c2ccccc21 | 0.29 mm |

System: Rattus norvegicus
Experiment: Anti-inflammatory activity in Wistar rat assessed as inhibition of carrageenan-induced paw edema at 10 mg/kg, ip pretreated for 1 hr followed by carrageenan challenge and measured after 3 hr relative to control (reference value: 0.00 +/-0.1 %)
Type: functional
Conditions: time 4 hrs

| SMILES | inhibition in vivo at 10 mg/kg |
| --- | --- |
| COc1cc(/C=C/C(=O)/C=C(O)/C=C/c2ccc(OC(=O)CNC(=O)OCC3c4ccccc4-c4ccccc43)c(OC)c2)ccc1OC(=O)CNC(=O)OCC1c2ccccc2-c2ccccc21 | 74% |

System: Mus musculus
Experiment: Analgesic activity in albino mouse assessed as forepaw licking/jumping latency time at 10 mg/kg, ip measured after 60 mins by hot plate test (reference value: 3.42 +/- 0.03 sec)
Type: functional
Conditions: 1 h

| SMILES | Time |
| --- | --- |
| COc1cc(/C=C/C(=O)/C=C(O)/C=C/c2ccc(OC(=O)CNC(=O)OCC3c4ccccc4-c4ccccc43)c(OC)c2)ccc1OC(=O)CNC(=O)OCC1c2ccccc2-c2ccccc21 | 4.08 s |

System: Splenocyte
Experiment: Immunomodulatory activity in Swiss albino mouse splenocytes assessed as cell viability at 10 uM by measuring inhibition of stimulation index incubated for 72 hrs in presence of mitogenic stimulus phytohaemagglutinin by MTT assay relative to indomethacin
Type: functional
Conditions: read-out: Activity

| SMILES | viability at 10 µM |
| --- | --- |
| COc1cc(/C=C/C(=O)/C=C(O)/C=C/c2ccc(OC(=O)CNC(=O)OCC3c4ccccc4-c4ccccc43)c(OC)c2)ccc1OC(=O)CNC(=O)OCC1c2ccccc2-c2ccccc21 | 68.8% |

System: Mus musculus
Experiment: Analgesic activity in albino mouse assessed as protection at 10 mg/kg, ip measured after 90 mins by hot plate test (reference value: 0 %)
Type: functional
Conditions: 1.5 h

| SMILES | Activity |
| --- | --- |
| COc1cc(/C=C/C(=O)/C=C(O)/C=C/c2ccc(OC(=O)CNC(=O)OCC3c4ccccc4-c4ccccc43)c(OC)c2)ccc1OC(=O)CNC(=O)OCC1c2ccccc2-c2ccccc21 | 40.4% |

System: Rattus norvegicus
Experiment: Antiinflammatory activity in Wistar rat model of carrageenan-induced paw edema assessed as reduction in thickness of paw edema at 10 mg/kg, ip pretreated for 1 hr followed by carrageenan challenge and measured after 24 hrs (reference value: 0.83 +/-0.08 mm)
Type: functional
Conditions: time 25 hrs

| SMILES | Activity |
| --- | --- |
| COc1cc(/C=C/C(=O)/C=C(O)/C=C/c2ccc(OC(=O)CNC(=O)OCC3c4ccccc4-c4ccccc43)c(OC)c2)ccc1OC(=O)CNC(=O)OCC1c2ccccc2-c2ccccc21 | 0.15 mm |

System: Mus musculus
Experiment: Analgesic activity in albino mouse assessed as protection at 10 mg/kg, ip measured after 120 mins by hot plate test (reference value: 0 %)
Type: functional
Conditions: 2 h

| SMILES | Activity |
| --- | --- |
| COc1cc(/C=C/C(=O)/C=C(O)/C=C/c2ccc(OC(=O)CNC(=O)OCC3c4ccccc4-c4ccccc43)c(OC)c2)ccc1OC(=O)CNC(=O)OCC1c2ccccc2-c2ccccc21 | 42% |

System: Streptococcus pyogenes
Experiment: Antibacterial activity against Streptococcus pyogenes ATCC 19615 incubated for 18 hrs by agar dilution method
Type: functional
Conditions: not given

| MIC | SMILES |
| --- | --- |
| 1 µg/mL and 1.08 µM | COc1cc(/C=C/C(=O)/C=C(O)/C=C/c2ccc(OC(=O)CNC(=O)OCC3c4ccccc4-c4ccccc43)c(OC)c2)ccc1OC(=O)CNC(=O)OCC1c2ccccc2-c2ccccc21 |

System: not listed separately
Experiment: Ulcerogenic activity in fasted albino mouse assessed as ulcer index in gastric mucosa at 10 mg/kg, po for 3 days (reference value: 0)
Type: toxicity, organism-based
Conditions: in vivo, 72 h, time 3 day

| SMILES | UI |
| --- | --- |
| COc1cc(/C=C/C(=O)/C=C(O)/C=C/c2ccc(OC(=O)CNC(=O)OCC3c4ccccc4-c4ccccc43)c(OC)c2)ccc1OC(=O)CNC(=O)OCC1c2ccccc2-c2ccccc21 | 0 |
